Laboratory results taken from patent US11602534B2, “Pyrimidine derivative kinase inhibitors” (HEFEI INSTITUTES OF PHYSICAL SCIENCE, CHINESE ACADEMY OF …, priority 2017, dated 2023).
Structures can show the parent of a compound that is named as a salt.

Assays:
FLT3-ITD-BaF3 = test: Proliferation of FLT3-ITD-BaF3 cells, CCK8 cell viability assay; type: cell-based; settings: Mus musculus, 72 hours, stably expressing FLT3/ITD
Procedure, shortened: (§1)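 Human kinase-region sequences were PCR-amplified, fused behind N-terminal TEL in MSCV-Puro and stably introduced into mouse BaF3 by retrovirus. IL-3 was then removed to give kinase-dependent lines. Compound effects on these and on parental BaF3 are scored as GI50 (μM) via CCK8 viable-cell quantification.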

P210-BaF3 = test: Proliferation of P210-BaF3 cells, CCK8 cell viability assay; type: cell-based; settings: Mus musculus, 72 hours, stably expressing BCR-ABL mutant activated kinase
Procedure, shortened: as §1

Tel-cKit-BaF3 = test: Proliferation of Tel-cKit-BaF3 cells, CCK8 cell viability assay; type: cell-based, mouse; settings: Mus musculus; 72 hours, CCK8; stably expressing cKIT kinase
Procedure, shortened: (§2)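 Parental murine BaF3 and IL-3-independent BaF3 transformants driven by TEL–cKIT, TEL–PDGFRα or TEL–PDGFRβ, with human kinase domains stably transduced by retrovirus. CCK8 dehydrogenase read-out gives GI50 (μM).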

TEL-PDGFRα-BaF3 = test: Proliferation of TEL-PDGFRα-BaF3 cells, CCK8 cell viability assay; type: cell-based; settings: Mus musculus, 72 hours, stably expressing PDGFRα kinase
Procedure, shortened: as §2

Tel-cKit/T670I-BaF3 = test: Proliferation of Tel-cKit/T670I-BaF3 cells, CCK8 cell viability assay; type: cell-based; settings: Mus musculus, 72 hours, stably expressing cKIT/T670I
Procedure, shortened: as §2

Tel-FLT3-BaF3 = test: Proliferation of Tel-FLT3-BaF3 cells, CCK8 cell viability assay; type: cell-based; settings: Mus musculus, 72 hours, stably expressing FLT3 kinase
Procedure, shortened: as §1

P210/T315I-BaF3 = test: Proliferation of P210/T315I-BaF3 cells, CCK8 cell viability assay; type: cell-based; settings: Mus musculus, 72 hours, stably expressing BCR-ABL/T315I
Procedure, shortened: as §1

Tel-RET-BaF3 = test: Proliferation of Tel-RET-BaF3 cells, CCK8 cell viability assay; type: cell-based; settings: Mus musculus, 72 hours, stably expressing RET kinase
TEL-VEGFR2-BaF3 = test: Proliferation of TEL-VEGFR2-BaF3 cells, CCK8 cell viability assay; type: cell-based; settings: Mus musculus, 72 hours, stably expressing VEGFR2 kinase
Procedure, shortened: as §1

TEL-PDGFRβ-BaF3 = test: Proliferation of TEL-PDGFRβ-BaF3 cells, CCK8 cell viability assay; type: cell-based; settings: Mus musculus, 72 hours, stably expressing PDGFRβ kinase
Procedure, shortened: as §2

BaF3 = test: Proliferation of BaF3 cells, CCK8 cell viability assay; type: cell-based; settings: Mus musculus, 72 hours
Procedure, shortened: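 Murine BaF3 lines carry retrovirally transduced human kinase domains fused to an N-terminal TEL fragment (cKIT, PDGFRα or PDGFRβ), and IL-3 is withdrawn so their growth depends on the fused kinase; parental BaF3 serves as the reference line. Living cells were quantified by CCK8 dehydrogenase activity, giving GI50 in μM.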

GI50 (FLT3-ITD-BaF3) [nM] | GI50 (P210-BaF3) [nM] | GI50 (Tel-cKit-BaF3) [nM] | GI50 (TEL-PDGFRα-BaF3) [nM] | GI50 (Tel-cKit/T670I-BaF3) [nM] | GI50 (Tel-FLT3-BaF3) [nM] | GI50 (P210/T315I-BaF3) [nM] | GI50 (Tel-RET-BaF3) [nM] | GI50 (TEL-VEGFR2-BaF3) [nM] | GI50 (TEL-PDGFRβ-BaF3) [nM] | GI50 (BaF3) [nM] | Structure (SMILES)
149 | 2800 | 2560 | 150 | 2270 | 694 | 1540 | 1920 | 890 | 180 | 1170 | Cc1ccc(NC(=O)NC2CCC(Oc3cc(NCCNC(=O)OC(C)(C)C)ncn3)CC2)cc1C(F)(F)F (centres unmarked) [Example 124, [2-(6-{4-[3-(4-methyl-3-trifluoromethyl-phenyl)-ureido]-cyclohexyloxy}-pyrimidin-4-ylamino)-ethyl]-aminotert-butyl Formate]
140 | > 10000 | 4600 | 38 | 6300 | 650 | > 10000 | 7900 | 3900 | 61 | > 10000 | CCCCC(=O)Nc1cc(Oc2ccc(NC(=O)Cc3ccccc3C(F)(F)F)cc2)ncn1 [Example 55, N-(6-{4-[2-(2-trifluoromethyl-phenyl)-acetylamino]-phenoxy}-pyrimidin-4-yl)-valeramide]
87 | > 10000 | 8470 | 110 | 641 | 150 | 8730 | 3870 | 1190 | 150 | > 10000 | Cc1ccc(NC(=O)NC2CCC(Oc3cc(NCCN)ncn3)CC2)cc1C(F)(F)F (centres unmarked) [Example 128, 1-{4-[6-(2-amino-ethylamino)-pyrimidin-4-yloxy]-cyclohexyl}-3-(4-methyl-3-trifluoromethyl-phenyl)-urea]
92 | > 10000 | 3600 | 14 | > 10000 | 510 | > 10000 | > 10000 | 1400 | 39 | > 10000 | CC(=O)Nc1cc(Oc2ccc(NC(=O)Cc3cc(F)cc(F)c3)cc2)ncn1 [Example 173, N-[4-(6-acetylamino-pyrimidin-4-yloxy)-phenyl]-2-(3,5-difluoro-phenyl)-acetamide]
36 | 3920 | 391 | 8 | 394 | 206 | 3920 | 4300 | 170 | 17 | 3370 | Cc1ccc(NC(=O)Nc2ccc(Oc3cc(NCCN4CCCC4)ncn3)cc2)cc1C(F)(F)F [Example 122, 1-(4-methyl-3-trifluoromethyl-phenyl)-3-{4-[6-(2-pyrrolidin-1-yl-ethylamino)-pyrimidin-4-yloxy]-phenyl}-urea]

More lines, now with the values behind:

Structure (SMILES) | GI50 (FLT3-ITD-BaF3) [nM] | GI50 (P210-BaF3) [nM] | GI50 (Tel-cKit-BaF3) [nM] | GI50 (TEL-PDGFRα-BaF3) [nM] | GI50 (Tel-cKit/T670I-BaF3) [nM] | GI50 (Tel-FLT3-BaF3) [nM] | GI50 (P210/T315I-BaF3) [nM] | GI50 (Tel-RET-BaF3) [nM] | GI50 (TEL-VEGFR2-BaF3) [nM] | GI50 (TEL-PDGFRβ-BaF3) [nM] | GI50 (BaF3) [nM]
CC(C)C(=O)Nc1cc(Oc2ccc(NC(=O)Cc3ccccc3C(F)(F)F)cc2)ncn1 [Example 49, N-(6-{4-[2-(2-trifluoromethyl-phenyl)-acetylamino]-phenoxy}-pyrimidin-4-yl)-isobutyramide] | 1970 | > 10000 | > 10000 | 59 | > 10000 | 2580 | > 10000 | > 10000 | 6110 | 145 | > 10000
CC(=O)Nc1cc(Oc2ccc(NC(=O)Cc3ccccc3Cl)cc2)ncn1 [Example 26, N-[4-(6-acetylamino-pyrimidin-4-yloxy)-phenyl]-2-(2-chloro-phenyl)-acetamide] | 77 | > 10000 | 8680 | 74 | > 10000 | 436 | > 10000 | > 10000 | 1240 | 180 | > 10000
CCC(=O)Nc1cc(Oc2ccc(NC(=O)Cc3ccccc3C(F)(F)F)cc2)ncn1 [Example 47, N-(6-{4-[2-(2-trifluoromethyl-phenyl)-acetylamino]-phenoxy}-pyrimidin-4-yl)-propanamide] | 142 | > 10000 | 8350 | 28 | > 10000 | 546 | > 10000 | > 10000 | 3170 | 89 | > 10000
CC(=O)Nc1cc(Oc2ccc(NC(=O)Cc3cccc(Br)c3)cc2)ncn1 [Example 13, N-[4-(6-acetylamino-pyrimidin-4-yloxy)-phenyl]-2-(3-bromo-phenyl)-acetamide] | 99 | > 10000 | 6890 | 4 | > 10000 | 616 | > 10000 | > 10000 | 566 | 33 | > 10000
COc1cc(CC(=O)Nc2ccc(Oc3cc(NC(C)=O)ncn3)cc2)ccc1O [Example 11, N-[4-(6-acetylamino-pyrimidin-4-yloxy)-phenyl]-2-(4-hydroxy-3-methoxy-phenyl)-acetamide] | 346 | > 10000 | > 10000 | 227 | > 10000 | 1100 | > 10000 | > 10000 | 1520 | 271 | > 10000
COCCNc1cc(O[C@H]2CC[C@H](NC(=O)Nc3ccc(C)c(C(F)(F)F)c3)CC2)ncn1 [Example 43, 1-((1R,4R)-4-((6-((2-methoxyethyl)amino)pyrimidin-4-yl)oxy)cyclohexyl)-3-(4-methyl-3-(trifluoromethyl)phenyl)urea] | 199 | 6960 | 5300 | 23 | 1120 | 305 | 5210 | 3400 | 2600 | 252 | > 10000
Cc1ccc(NC(=O)N[C@H]2CC[C@H](Oc3cc(NCCN)ncn3)CC2)cc1C(F)(F)F [Example 46, 1-((1R,4R)-4-((6-((2-aminoethyl)amino)pyrimidin-4-yl)oxy)cyclohexyl)-3-(4-methyl-3-(trifluoromethyl)phenyl)urea] | 87 | > 10000 | 5100 | 24 | 765 | 228 | 9170 | 4030 | 3030 | 248 | 7880
CC(=O)Nc1cc(Oc2ccc(NC(=O)Cc3ccccc3F)cc2)ncn1 [Example 25, N-[4-(6-acetylamino-pyrimidin-4-yloxy)-phenyl]-2-(2-fluoro-phenyl)-acetamide] | 263 | > 10000 | > 10000 | 33 | > 10000 | 1150 | 1040 | > 10000 | 2110 | 73 | > 10000
